Data taken from patent publication US11168073B2, “3,3-difluoroallylamines or salts thereof and pharmaceutical compositions comprising the same” (YUHAN CORPORATION, priority 2018, dated 2021).
Where a name gives a salt, the structure may show the parent alone.

How the values were obtained:
Type in all cases: biochemical
[1] = biological target: T1, recombinant human VAP-1 (Homo sapiens, UniProt Q16853); assay: Activity evaluation on recombinant human VAP-1 (Amplex Red/HRP-coupled hydrogen peroxide assay, benzylamine substrate); details: recombinant human VAP-1; 30 min preincubation at 37° C.; 1 mM benzylamine; read-out: Inhibitory Activity (IC50, nM) human VAP-1
T1 construct: purchased R&D systems
T1 sequence (Q16853 1-763): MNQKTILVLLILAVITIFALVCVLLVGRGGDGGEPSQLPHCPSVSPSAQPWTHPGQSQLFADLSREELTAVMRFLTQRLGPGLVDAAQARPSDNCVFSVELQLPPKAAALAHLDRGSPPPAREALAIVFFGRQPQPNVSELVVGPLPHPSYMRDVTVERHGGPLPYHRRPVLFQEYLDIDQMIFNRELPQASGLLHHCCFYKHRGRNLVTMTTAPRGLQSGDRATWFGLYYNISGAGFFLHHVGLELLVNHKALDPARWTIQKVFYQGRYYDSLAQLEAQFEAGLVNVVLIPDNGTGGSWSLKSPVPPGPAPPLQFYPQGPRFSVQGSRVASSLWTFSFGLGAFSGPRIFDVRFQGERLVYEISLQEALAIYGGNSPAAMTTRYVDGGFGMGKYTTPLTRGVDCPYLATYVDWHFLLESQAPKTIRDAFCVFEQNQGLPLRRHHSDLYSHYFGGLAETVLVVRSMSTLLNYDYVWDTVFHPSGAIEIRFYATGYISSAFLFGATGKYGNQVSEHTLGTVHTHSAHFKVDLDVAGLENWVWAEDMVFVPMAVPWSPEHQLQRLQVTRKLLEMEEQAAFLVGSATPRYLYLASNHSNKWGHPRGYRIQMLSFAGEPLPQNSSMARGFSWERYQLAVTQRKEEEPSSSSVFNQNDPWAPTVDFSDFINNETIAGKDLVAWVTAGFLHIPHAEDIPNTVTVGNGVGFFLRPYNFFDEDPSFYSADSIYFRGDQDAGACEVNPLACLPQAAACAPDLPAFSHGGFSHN
How it was run: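 Recombinant human VAP-1 in 50 mM sodium phosphate pH 7.4 preincubated 30 min at 37 °C with compound (8-point 1:3 series, <1% DMSO), then 1 mM benzylamine, 200 uM Amplex Red, 1 U/mL HRP added. H2O2-derived resorufin fluorescence (ex 544/em 590) followed 1–2 h; IC50 from four-parameter fit of rate inhibition.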

[2] = biological target: T2, recombinant human MAO-A (monoamine oxidase-A) (Homo sapiens, UniProt P21397); assay: Activity evaluation on recombinant human MAO-A (Amplex Red/HRP-coupled assay, 0.5 mM tyramine substrate); details: 0.5 mM tyramine, read-out: Inhibitory Activity (IC50, nM) MAO-A
T2 construct: purchased Sigma-Aldrich
T2 sequence (P21397 1-527): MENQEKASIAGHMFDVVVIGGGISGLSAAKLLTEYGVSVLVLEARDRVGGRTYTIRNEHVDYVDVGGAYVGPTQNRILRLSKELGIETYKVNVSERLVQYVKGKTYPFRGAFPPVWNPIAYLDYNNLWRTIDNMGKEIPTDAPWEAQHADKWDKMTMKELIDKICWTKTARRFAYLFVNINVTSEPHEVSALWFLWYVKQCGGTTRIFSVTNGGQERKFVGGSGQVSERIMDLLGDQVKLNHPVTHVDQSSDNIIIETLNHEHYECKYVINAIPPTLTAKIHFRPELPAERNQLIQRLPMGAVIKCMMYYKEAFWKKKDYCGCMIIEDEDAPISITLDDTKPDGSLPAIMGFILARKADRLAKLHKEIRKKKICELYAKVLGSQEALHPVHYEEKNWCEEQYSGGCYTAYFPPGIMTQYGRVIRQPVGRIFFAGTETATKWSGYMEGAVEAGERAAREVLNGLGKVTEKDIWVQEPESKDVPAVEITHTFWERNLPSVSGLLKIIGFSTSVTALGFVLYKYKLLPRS
How it was run: (§1)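 Compounds preincubated 30 min at 37 °C with enzyme in 50 mM sodium phosphate pH 7.4 (final DMSO <1%, 8-point 1:3 dilutions); reaction started with 200 uM Amplex Red, 1 U/mL HRP and substrate (MAO-A 0.5 mM tyramine, MAO-B 1 mM benzylamine, DAO 1 mM putrescine). Resorufin fluorescence (ex 544/em 590 nm) followed over 1-2 h; IC50 from four-parameter logistic fit.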

[3] = biological target: T3, recombinant human MAO-B (monoamine oxidase-B) (Homo sapiens, UniProt P27338); assay: Activity evaluation on recombinant human MAO-B (Amplex Red/HRP-coupled assay, 1 mM benzylamine substrate); details: 1 mM benzylamine, read-out: Inhibitory Activity (IC50, nM) MAO-B
T3 construct: purchased Sigma-Aldrich
T3 sequence (P27338 1-520): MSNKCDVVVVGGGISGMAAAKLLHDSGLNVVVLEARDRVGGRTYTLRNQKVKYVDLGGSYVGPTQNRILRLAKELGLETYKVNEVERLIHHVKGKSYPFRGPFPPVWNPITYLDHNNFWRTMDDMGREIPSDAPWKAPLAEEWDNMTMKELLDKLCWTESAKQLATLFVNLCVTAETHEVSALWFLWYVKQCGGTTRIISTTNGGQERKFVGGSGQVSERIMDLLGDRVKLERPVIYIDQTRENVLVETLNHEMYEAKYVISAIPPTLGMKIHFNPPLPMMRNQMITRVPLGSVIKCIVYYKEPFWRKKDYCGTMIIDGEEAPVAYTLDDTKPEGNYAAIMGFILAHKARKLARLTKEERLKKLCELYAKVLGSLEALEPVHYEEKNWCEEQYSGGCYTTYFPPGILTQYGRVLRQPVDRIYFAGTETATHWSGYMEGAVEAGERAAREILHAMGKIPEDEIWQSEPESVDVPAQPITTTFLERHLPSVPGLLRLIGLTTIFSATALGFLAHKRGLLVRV
How it was run: as §1

[4] = biological target: T4, recombinant human DAO (diamine oxidase) (Homo sapiens, UniProt P19801); assay: Activity evaluation on recombinant human DAO (Amplex Red/HRP-coupled assay, 1 mM putrescine substrate); details: 1 mM putrescine, read-out: Inhibitory Activity (IC50, nM) DAO
T4 construct: purchased R&D systems
T4 sequence (P19801 20-751): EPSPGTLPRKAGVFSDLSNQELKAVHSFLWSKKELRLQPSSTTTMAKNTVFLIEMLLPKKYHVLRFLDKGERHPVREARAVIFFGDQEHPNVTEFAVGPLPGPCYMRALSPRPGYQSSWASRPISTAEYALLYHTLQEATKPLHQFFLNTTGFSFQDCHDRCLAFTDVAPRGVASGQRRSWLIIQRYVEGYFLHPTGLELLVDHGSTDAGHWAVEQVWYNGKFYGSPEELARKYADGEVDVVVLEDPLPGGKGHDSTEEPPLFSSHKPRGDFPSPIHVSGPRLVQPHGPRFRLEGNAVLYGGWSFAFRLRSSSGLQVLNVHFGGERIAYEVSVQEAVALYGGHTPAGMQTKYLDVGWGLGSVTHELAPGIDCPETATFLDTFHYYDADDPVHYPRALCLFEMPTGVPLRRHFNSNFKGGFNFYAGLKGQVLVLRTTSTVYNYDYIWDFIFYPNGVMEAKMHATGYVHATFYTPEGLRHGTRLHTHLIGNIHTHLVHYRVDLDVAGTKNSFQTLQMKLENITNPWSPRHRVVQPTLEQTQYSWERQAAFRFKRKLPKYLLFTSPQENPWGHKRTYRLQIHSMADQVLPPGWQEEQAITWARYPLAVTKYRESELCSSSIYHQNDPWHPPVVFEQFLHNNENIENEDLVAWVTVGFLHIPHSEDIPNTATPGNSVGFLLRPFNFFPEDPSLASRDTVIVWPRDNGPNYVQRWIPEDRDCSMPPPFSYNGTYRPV
How it was run: as §1

Structure (SMILES)	IC50 [1]	IC50 [2]	IC50 [3]	IC50 [4]
CN(C)c1ccc(-c2csc(Cn3cnn(CC(CN)=C(F)F)c3=O)c2)cn1 [Example 149, 2-[2-(aminomethyl)-3,3-difluoro-allyl]-4-[[4-[6-(dimethylamino)-3-pyridyl]-2-thienyl]methyl]-1,2,4-triazol-3-one Trifluoroacetate]	0.6 nM	> 100000 nM	> 100000 nM	> 10000 nM
NCC(Cn1ncn(Cc2cc(-c3ccc4c(c3)OCO4)cs2)c1=O)=C(F)F [Example 150, 2-[2-(aminomethyl)-3,3-difluoro-allyl]-4-[[4-(1,3-benzodioxol-5-yl)-2-thienyl]methyl]-1,2,4-triazol-3-one Trifluoroacetate]	2.9 nM	> 100000 nM	2800 nM	> 10000 nM
CN1C(=O)CCc2cc(-c3csc(Cn4cnn(CC(CN)=C(F)F)c4=O)c3)ccc21 [Example 152, 6-[5-[[1-[2-(aminomethyl)-3,3-difluoro-allyl]-5-oxo-1,2,4-triazol-4-yl]methyl]-3-thienyl]-1-methyl-3,4-dihydroquinolin-2-one Trifluoroacetate]	0.2 nM	> 100000 nM	13400 nM	3500 nM
Cc1cc(-c2ccc(S(C)(=O)=O)cc2)sc1Cn1cnn(CC(CN)=C(F)F)c1=O [Example 154, 2-[2-(aminomethyl)-3,3-difluoro-allyl]-4-[[3-methyl-5-(4-methylsulfonylphenyl)-2-thienyl]methyl]-1,2,4-triazol-3-one Trifluoroacetate]	4 nM	> 100000 nM	> 100000 nM	21000 nM
Cc1cc(-c2ccc(N(C)C)nc2)sc1Cn1cnn(CC(CN)=C(F)F)c1=O [Example 157, 2-[2-(aminomethyl)-3,3-difluoro-allyl]-4-[[5-[6-(dimethylamino)-3-pyridyl]-3-methyl-2-thienyl]methyl]-1,2,4-triazol-3-one Trifluoroacetate]	2.3 nM	> 100000 nM	> 100000 nM	> 100000 nM
Cc1cc(-c2ccc3c(c2)OCO3)sc1Cn1cnn(CC(CN)=C(F)F)c1=O [Example 158, 2-[2-(aminomethyl)-3,3-difluoro-allyl]-4-[[5-(1,3-benzodioxol-5-yl)-3-methyl-2-thienyl]methyl]-1,2,4-triazol-3-one Trifluoroacetate]	7 nM	> 100000 nM	3800 nM	> 100000 nM
Cn1cc(C#Cc2cccc(-n3cnn(CC(CN)=C(F)F)c3=O)n2)cn1 [Example 160, 2-[2-(aminomethyl)-3,3-difluoro-allyl]-4-[6-[2-(1-methylpyrazol-4-yl)ethynyl]-2-pyridyl]-1,2,4-triazol-3-one trifluoroacetate]	1.5 nM	> 100000 nM	15600 nM	5090 nM
NCC(Cn1ncn(Cc2ccc(/C=C/c3cnc4c(c3)NC(=O)CO4)s2)c1=O)=C(F)F [Example 161, 7-[(E)-2-[5-[[1-[2-(aminomethyl)-3,3-difluoro-allyl]-5-oxo-1,2,4-triazol-4-yl]methyl]-2-thienyl]vinyl]-1H-pyrido[2,3-b][1,4]oxazin-2-one Trifluoroacetate]	0.2 nM	> 100000 nM	> 100000 nM	54000 nM

Results, then the compound that gave them:

IC50 [1]	IC50 [2]	IC50 [3]	IC50 [4]	Structure (SMILES)
0.3 nM	> 100000 nM	26100 nM	6600 nM	Cc1cc(-c2csc(Cn3cnn(CC(CN)=C(F)F)c3=O)c2)cc2c1NC(=O)CC2 [Example 151, 6-[5-[[1-[2-(aminomethyl)-3,3-difluoro-allyl]-5-oxo-1,2,4-triazol-4-yl]methyl]-3-thienyl]-8-methyl-3,4-dihydro-1H-quinolin-2-one Trifluoroacetate]
1.3 nM	> 100000 nM	29000 nM	36000 nM	CCn1cc(-c2csc(Cn3cnn(CC(CN)=C(F)F)c3=O)c2)cn1 [Example 153, 2-[2-(aminomethyl)-3,3-difluoro-allyl]-4-[[4-(1-ethylpyrazol-4-yl)-2-thienyl]methyl]-1,2,4-triazol-3-one Trifluoroacetate]
56 nM	> 100000 nM	> 100000 nM	50000 nM	Cc1cc(-c2ccc(N3CCNCC3)cc2)sc1Cn1cnn(CC(CN)=C(F)F)c1=O [Example 155, 2-[2-(aminomethyl)-3,3-difluoro-allyl]-4-[[3-methyl-5-(4-piperazin-1-ylphenyl)-2-thienyl]methyl]-1,2,4-triazol-3-one Ditrifluoroacetate]
3.2 nM	> 100000 nM	17000 nM	9100 nM	Cc1cc(-c2ccc(C(F)(F)F)nc2)sc1Cn1cnn(CC(CN)=C(F)F)c1=O [Example 156, 2-[2-(aminomethyl)-3,3-difluoro-allyl]-4-[[3-methyl-5-[6-(trifluoromethyl)-3-pyridyl]-2-thienyl]methyl]-1,2,4-triazol-3-one Trifluoroacetate]
5.2 nM	> 100000 nM	> 100000 nM	52000 nM	CCn1cc(-c2cc(C)c(Cn3cnn(CC(CN)=C(F)F)c3=O)s2)cn1 [Example 159, 2-[2-(aminomethyl)-3,3-difluoro-allyl]-4-[[5-(1-ethylpyrazol-4-yl)-3-methyl-2-thienyl]methyl]-1,2,4-triazol-3-one Trifluoroacetate]
